In article PMC10553834, “Differentiating the roles of Mycobacterium tuberculosis substrate binding proteins, FecB and FecB2, in iron uptake” (PLOS Pathogens, 2023):

How the values were obtained:
Format in all cases: binding
FecB R141S = FecB R141S (Mycobacterium tuberculosis, UniProt O53291, R141S)
FecB L163R = FecB L163R (Mycobacterium tuberculosis, UniProt O53291, L163R)
FecB Q233S = FecB Q233S (Mycobacterium tuberculosis, UniProt O53291, Q233S)
FecB R240S = FecB R240S (Mycobacterium tuberculosis, UniProt O53291, R240S)
FecB Y270S = FecB Y270S (Mycobacterium tuberculosis, UniProt O53291, Y270S)
FecB E272S = FecB E272S (Mycobacterium tuberculosis, UniProt O53291, E272S)
FecB D332S = FecB D332S (Mycobacterium tuberculosis, UniProt O53291, D332S)
FecB Q336S = FecB Q336S (Mycobacterium tuberculosis, UniProt O53291, Q336S)

ferric-carboxymycobactin [Fe-cMB]
Kd (FecB R141S): 1.13 µM | Kd (FecB L163R): 1.16 µM | Kd (FecB Q233S): 1.05 µM | Kd (FecB R240S): 1.1 µM | Kd (FecB Y270S): 0.94 µM | Kd (FecB E272S): 1.73 µM | Kd (FecB D332S): 0.99 µM | Kd (FecB Q336S): 1.4 µM
